According to patent publication US20240368230A1, “CELL-PENETRATING PEPTIDES COMPRISING MULTIPLE 5-MER ALPHA-HELIX FRAGMENTS AND USES THEREOF” (ArtProBio Co., Ltd., priority 2023, published 2024):
Where a SMILES comes first, the peptide text is derived from it. Where no end group is shown, it is not given here. [ ]: non-standard residue; d: D form. Aib = CC(C)(N)C(=O)O

Tests used:
[1] = CD spectroscopy of cell-penetrating peptides (helicity); details: for helicity ([θ]222/[θ]208): CD spectra; for secondary structure / helix stabilization by CD: 10 mM potassium phosphate, pH 7.4, 20° C.
Experimental: The concentration of peptides/proteins was 5-20 μM in general. Spectra were obtained using a Jasco J-1500 CD spectrometer (JASCO, Japan) or a Chirascan CD spectrometer (Applied Photophysics, UK). Scanning was carried out using a cuvette with a path length of 1 mm. MRE (mean residue ellipticity) was calculated per amino acid residue.
The cell-penetrating peptides (CPP1 TO 13 and CPP11d) were dissolved respectively in 10 mM potassium phosphate. The analysis was performed under the condition of pH 7.4 and 20° C.

BALB/c nude mice = test: In-vivo fluorescence imaging (IVIS) of living mice, targeting; details: FAM-labeled, IV 5 mg/kg, 4 hours; for bioaccumulation / targeting activity in the body: comparison with existing CPPs; for in-vivo targeting site: 200 μL
Experimental: All animal experimental procedures including sample administration and euthanasia were performed in accordance with the strict guidelines of the Yonsei University Health System Institutional Animal Care and Use Committee. Female 7-week BALB/c nude mice were purchased from Orient Bio Company (Korea). Fluorescence-labeled peptide (sample) (10 mg/kg) was injected via the lateral tail vein of the mice. Fluorescence images were acquired at different times (0, 4, 8 and 12 hours) using an in-vivo imaging system (IVIS; PerkinElmer, USA) and the images were analyzed with the Living Image software (PerkinElmer).
Female 7-week-old BALB/c nude mice were injected IV (intravenously) with the cell-penetrating peptide prepared in Example 10 (CPP10) at 10 mg/kg or 1 mg/kg via the lateral tail vein and imaged using IVIS (in-vivo imaging system) (PerkinElmer, USA) 4 hours later. The images were analyzed with the Living Image software (PerkinElmer). The mice were analyzed from the top, bottom (belly) and side positions (FIG. 44A). Then, after administering the same volume of the cell-penetrating peptide prepared in Example 10 (CPP10) at 10 mg/kg via IV (intravenous) or IP (intraperitoneal) injection, the mice were imaged 4 hours later (FIG. 44B).
Next, female 7-week-old BALB/c nude mice were injected IV (intravenously) with the cell-penetrating peptide of Example 10 (CPP10), the cell-penetrating peptide of Example 11 (CPP11) or the cell-penetrating peptide of Example 14 (CPP11d) at 10 mg/kg via the lateral tail vein, and they were imaged 30 minutes and 6 hours later using IVIS (in-vivo imaging system) (PerkinElmer, USA). The images were analyzed with the Living Image software (PerkinElmer) (FIG. 44C). In FIGS. 44A and 44B, the cell-penetrating peptides were labeled with TAMRA (5 (6)-carboxytetramethylrhodamine). In FIG. 44C, the cell-penetrating peptides were labeled with FAM.
The images were analyzed with the Living Image software (PerkinElmer) (FIGS. 50 and 51).
The cell-penetrating peptide prepared in Example 11 (CPP11) was also administered at the same concentration and then analyzed by IVIS 1 hour later (FIG. 51). The cell-penetrating peptide was used after labeling with FAM.
4 hours later, the mice were imaged using IVIS (in-vivo imaging system) (PerkinElmer, USA) and the images were analyzed with the Living Image software (PerkinElmer) (FIG. 53).
The cell-penetrating peptide prepared in Example 11 (CPP11) was also administered at the same concentration and then analyzed by IVIS 1 hour later (FIG. 53). The cell-penetrating peptide was used after labeling with FAM.
Female 7-week-old BALB/c nude mice were injected IV (intravenously) with 200 μL of the cell-penetrating peptide of Example 11 (CPP11) or the existing cell-penetrating peptides (Rev ARM, Tat, penetratin and R8) at 5 mg/kg via the lateral tail vein. 4 hours later, the mice were imaged using IVIS (in-vivo imaging system) (PerkinElmer, USA) and the images were analyzed with the Living Image software (PerkinElmer) (FIGS. 54 and 55). The cell-penetrating peptides were used after labeling with FAM.

UAUQRARNUAUQRARNUAUQRARNUAUQRARNUAU ([Aib]A[Aib]QRARN[Aib]A[Aib]QRARN[Aib]A[Aib]QRARN[Aib]A[Aib]QRARN[Aib]A[Aib]-NH2; not fully specified) [CPP14]
helicity ([θ]222/[θ]208) [1]: 0.81

TRQARRNRRRRWRERQR [Rev ARM, reference compound]
bioaccumulation (BALB/c nude mice): did not show significant bioaccumulation | targeting activity in the body (BALB/c nude mice): did not show targeting activity for specific sites in the body

C[C@H](NC(=O)[C@H](CCC(N)=O)NC(=O)C(C)(C)NC(=O)CNC(=O)C(C)(C)NC(=O)[C@H](CC(N)=O)NC(=O)[C@H](CCCNC(=N)N)NC(=O)[C@H](CCCNC(=N)N)NC(=O)[C@H](C)NC(=O)[C@H](CCC(N)=O)NC(=O)C(C)(C)NC(=O)[C@H](C)NC(=O)C(C)(C)NC(=O)[C@H](CC(N)=O)NC(=O)[C@H](CCCNC(=N)N)NC(=O)[C@H](CCCNC(=N)N)NC(=O)[C@H](C)NC(=O)[C@H](CCC(N)=O)NC(=O)C(C)(C)NC(=O)[C@H](C)NC(=O)C(C)(C)NC(=O)[C@H](CC(N)=O)NC(=O)[C@H](CCCNC(=N)N)NC(=O)[C@H](CCCNC(=N)N)NC(=O)[C@H](C)NC(=O)[C@H](CCC(N)=O)NC(=O)C(C)(C)NC(=O)[C@H](C)NC(=O)C(C)(C)N)C(=O)N[C@@H](CCCNC(=N)N)C(=O)N[C@@H](CCCNC(=N)N)C(=O)N[C@@H](CC(N)=O)C(=O)NC(C)(C)C(=O)N[C@@H](C)C(=O)NC(C)(C)C(N)=O [CPP19] (HELM PEPTIDE1{[Aib].A.[Aib].Q.A.R.R.N.[Aib].A.[Aib].Q.A.R.R.N.[Aib].A.[Aib].Q.A.R.R.N.[Aib].G.[Aib].Q.A.R.R.N.[Aib].A.[Aib].[am]}$$$$V2.0; N-terminus assumed)
helicity ([θ]222/[θ]208) [1]: ≥ 0.7 | helicity ([θ]222/[θ]208) ([1]; listed as Example 20): 0.706 | in-vivo targeting site (BALB/c nude mice): target the ear

N=C(N)NCCC[C@H](NC(=O)[C@H](CCCNC(=N)N)NC(=O)[C@H](CCCNC(=N)N)NC(=O)[C@H](CCC(N)=O)NC(=O)[C@H](CCCNC(=N)N)NC(=O)[C@H](CCCNC(=N)N)NC(=O)[C@H](CCCCN)NC(=O)[C@H](CCCCN)NC(=O)[C@H](CCCNC(=N)N)NC(=O)CNC(=O)[C@@H](N)Cc1ccc(O)cc1)C(N)=O [Tat, Tyr-Gly-Arg-Lys-Lys-Arg-Arg-Gln-Arg-Arg-Arg, reference compound]
bioaccumulation (BALB/c nude mice): did not show significant bioaccumulation | targeting activity in the body (BALB/c nude mice): did not show targeting activity for specific sites in the body

C[C@H](NC(=O)[C@H](CCC(N)=O)NC(=O)C(C)(C)NC(=O)CNC(=O)C(C)(C)NC(=O)[C@H](CC(N)=O)NC(=O)[C@H](CCCNC(=N)N)NC(=O)[C@H](CCCNC(=N)N)NC(=O)[C@H](C)NC(=O)[C@H](CCC(N)=O)NC(=O)C(C)(C)NC(=O)[C@H](C)NC(=O)C(C)(C)NC(=O)[C@H](CC(N)=O)NC(=O)[C@H](CCCNC(=N)N)NC(=O)[C@H](CCCNC(=N)N)NC(=O)[C@H](C)NC(=O)[C@H](CCC(N)=O)NC(=O)C(C)(C)NC(=O)[C@H](C)NC(=O)C(C)(C)N)C(=O)N[C@@H](CCCNC(=N)N)C(=O)N[C@@H](CCCNC(=N)N)C(=O)N[C@@H](CC(N)=O)C(=O)NC(C)(C)C(=O)NCC(=O)NC(C)(C)C(=O)N[C@@H](CCC(N)=O)C(=O)N[C@@H](C)C(=O)N[C@@H](CCCNC(=N)N)C(=O)N[C@@H](CCCNC(=N)N)C(=O)N[C@@H](CC(N)=O)C(=O)NC(C)(C)C(=O)N[C@@H](C)C(=O)NC(C)(C)C(N)=O [CPP20] (HELM PEPTIDE1{[Aib].A.[Aib].Q.A.R.R.N.[Aib].A.[Aib].Q.A.R.R.N.[Aib].G.[Aib].Q.A.R.R.N.[Aib].G.[Aib].Q.A.R.R.N.[Aib].A.[Aib].[am]}$$$$V2.0; N-terminus assumed)
helicity ([θ]222/[θ]208) ([1]; listed as Example 21): 0.565 | in-vivo targeting site (BALB/c nude mice): target the ear | accumulation efficiency in the ear (BALB/c nude mice; among CPP19 to 21): much superior accumulation efficiency in the ear

UAUNRARQUAUNRARQUAUNRARQUAUNRARQUAU ([Aib]A[Aib]NRARQ[Aib]A[Aib]NRARQ[Aib]A[Aib]NRARQ[Aib]A[Aib]NRARQ[Aib]A[Aib]-NH2) [CPP17]
helicity ([θ]222/[θ]208) [1]: 0.78

C[C@H](NC(=O)[C@H](CCC(N)=O)NC(=O)C(C)(C)NC(=O)CNC(=O)C(C)(C)NC(=O)[C@H](CC(N)=O)NC(=O)[C@H](CCCNC(=N)N)NC(=O)[C@H](CCCNC(=N)N)NC(=O)[C@H](C)NC(=O)[C@H](CCC(N)=O)NC(=O)C(C)(C)NC(=O)CNC(=O)C(C)(C)NC(=O)[C@H](CC(N)=O)NC(=O)[C@H](CCCNC(=N)N)NC(=O)[C@H](CCCNC(=N)N)NC(=O)[C@H](C)NC(=O)[C@H](CCC(N)=O)NC(=O)C(C)(C)NC(=O)[C@H](C)NC(=O)C(C)(C)N)C(=O)N[C@@H](CCCNC(=N)N)C(=O)N[C@@H](CCCNC(=N)N)C(=O)N[C@@H](CC(N)=O)C(=O)NC(C)(C)C(=O)NCC(=O)NC(C)(C)C(=O)N[C@@H](CCC(N)=O)C(=O)N[C@@H](C)C(=O)N[C@@H](CCCNC(=N)N)C(=O)N[C@@H](CCCNC(=N)N)C(=O)N[C@@H](CC(N)=O)C(=O)NC(C)(C)C(=O)N[C@@H](C)C(=O)NC(C)(C)C(N)=O [CPP21] (HELM PEPTIDE1{[Aib].A.[Aib].Q.A.R.R.N.[Aib].G.[Aib].Q.A.R.R.N.[Aib].G.[Aib].Q.A.R.R.N.[Aib].G.[Aib].Q.A.R.R.N.[Aib].A.[Aib].[am]}$$$$V2.0; N-terminus assumed)
helicity ([θ]222/[θ]208) ([1]; listed as Example 22): 0.500 | in-vivo targeting site (BALB/c nude mice): target the ear

UAUNRRAQUAUNRRAQUAUNRRAQUAUNRRAQUAU ([Aib]A[Aib]NRRAQ[Aib]A[Aib]NRRAQ[Aib]A[Aib]NRRAQ[Aib]A[Aib]NRRAQ[Aib]A[Aib]-NH2) [CPP16]
helicity ([θ]222/[θ]208) [1]: 0.66

UAUQARRNUAUQARRNUAUQARRNUAUQARRNUAUQARRNUAU ([Aib]A[Aib]QARRN[Aib]A[Aib]QARRN[Aib]A[Aib]QARRN[Aib]A[Aib]QARRN[Aib]A[Aib]QARRN[Aib]A[Aib]; not fully specified) [CPP13]
secondary structure / helix stabilization by CD [1]: not further increased

UAUQRRANUAUQRRANUAUQRRANUAUQRRANUAU ([Aib]A[Aib]QRRAN[Aib]A[Aib]QRRAN[Aib]A[Aib]QRRAN[Aib]A[Aib]QRRAN[Aib]A[Aib]-NH2; not fully specified) [CPP15]
helicity ([θ]222/[θ]208) [1]: 0.66

AUAUARQARRNRQARRNRQARRNAUAUA (A[Aib]A[Aib]ARQARRNRQARRNRQARRNA[Aib]A[Aib]A; not fully specified (C-terminus)) [CPP4]
secondary structure / helix stabilization by CD [1]: helical structure was somewhat stabilized

UAUNARRQUAUNARRQUAUNARRQUAUNARRQUAU ([Aib]A[Aib]NARRQ[Aib]A[Aib]NARRQ[Aib]A[Aib]NARRQ[Aib]A[Aib]NARRQ[Aib]A[Aib]-NH2) [CPP18]
helicity ([θ]222/[θ]208) [1]: 0.72

QARRNQARRNQARRNQARRN [CPP6]
secondary structure / helix stabilization by CD [1]: mostly in random coil state

UAURQARRNUAURQARRNUAURQARRNUAURQARRNUAU ([Aib]A[Aib]RQARRN[Aib]A[Aib]RQARRN[Aib]A[Aib]RQARRN[Aib]A[Aib]RQARRN[Aib]A[Aib]; not fully specified (C-terminus)) [CPP5]
secondary structure / helix stabilization by CD [1]: helical structure was somewhat stabilized

QARRNQARRNQARRNQARRNQARRN [CPP7]
secondary structure / helix stabilization by CD [1]: mostly in random coil state

RRRRRRRR [R8, reference compound]
bioaccumulation (BALB/c nude mice): did not show significant bioaccumulation | targeting activity in the body (BALB/c nude mice): did not show targeting activity for specific sites in the body
